The values that follow come from patent US10870639B2, “Pyrimidine compounds and pharmaceutical compositions for preventing or treating cancers including the same” (HANMI PHARM. CO., LTD., priority 2018, dated 2020).

The target in data set [1] is FLT3 ITD (Homo sapiens, UniProt P36888, ITD). The data set is described as follows: LanthaScreen kinase binding assay, FLT3 ITD. In general terms: In TR-FRET formats the signal depends on donor and acceptor labels being close together.
Procedure: (§2) The inhibitory activity of some of the compounds described above against FLT3-ITD, FLT3 wild type (WT), VEGFR2 (KDR), and SYK kinase was measured.
(§3) This experiment was carried out on a 384-well plate in conditions including 50 mM HEPES pH 7.5, 0.01% BRIJ-35, 10 mM MgCl2, 1 mM EGTA, and 1% DMSO.
In data set [2] the test system is MOLM-13. The data set is described as follows: Cell growth inhibition (MTS), MOLM-13. It counts as cell-based. The following applies: Homo sapiens, MOLM-13, 72 h, incubation three days. How it is done: (§1) The human acute myelogenous leukemia […] cell line MOLM-13 (DSMZ no. ACC 554) was incubated in RPM11640 medium supplemented with 20% heat-inactivated FBS at a temperature of 37° C. The incubated cell line was prepared in an amount of 2.0×10^4 cells/100 μL, and then plated on a 96-well plate. The RPMI1640 medium was serially diluted with the test compounds at a concentration in a range of 1 μM to 0.01 nM at a ratio of 1:10. Subsequently, incubation was performed thereon for three days. For the human acute myelogenous leukemia cell line MV-4-11 cell line (ATCC® CRL-9591™), the cells were incubated at a temperature of 37° C. in IMDM medium supplemented with 10% FBS. The incubated cell line was prepared in an amount of 2×10^4 cells/100 μL, and then plated on a 96-well plate. The IMDM medium was treated with cascade dilution of three test compounds at a concentration in a range of 1 μM to 0.01 nM at a rate of 1/10. Subsequently, incubation was performed thereon for three days. MTS test was performed to measure cell viability, and the growth inhibition (GI50) value of the cell line was calculated using GraphPad Prism software.

In data set [3] the test system is MV-4-11. The data set is described as follows: Cell growth inhibition (MTS), MV-4-11. It counts as cell-based. The following applies: Homo sapiens, MV4-11, 72 h, incubation three days. As to the method:
as §1

Data set [4] has as its target FLT3 WT (Homo sapiens (Human), UniProt P36888). Kind of data set: LanthaScreen kinase binding assay, FLT3 WT. Particulars: kinase tracer-236, 50 nM to 0.05 nM.
Procedure: as §2, §3
The nature of data set [5]: Pharmacokinetic profile in mice (p.o. and i.v.). It is filed as in vivo. Further details: AUC: concentration or dose not given beside the values. Particulars: mouse, plasma; for AUC: LC-MS/MS, non-compartment analysis, read-out: Area under the curve (AUC) of mice; for bioavailability: po, BA=(AUC p.o./AUC i.v.)×(Dose i.v./Dose p.o.)×100. As to the method: After test substances were formulated by using the selected solvents, they were administered orally (p.o.) and intravenously (iv) once for each and a certain amount of blood was taken at a predetermined time, and plasma was isolated from the blood and a concentration analysis was performed thereon by LC-MS/MS. The AUC (drug concentration and an area under the curve) was calculated according to the linear-log trapezoidal summation formula by using the non-compartment analysis of the WinNonlin program through the plasma concentration curves over time. The bioavailability (BA) was calculated by applying the calculated AUC value to the following formula. BA (%)=(AUC p.o./AUC i.v.)×(Dose i.v./Dose p.o.)×100

Bounds are passed on as bounds.

FLT3 ITD, sequence (P36888 whole entry, looked up, change not shown): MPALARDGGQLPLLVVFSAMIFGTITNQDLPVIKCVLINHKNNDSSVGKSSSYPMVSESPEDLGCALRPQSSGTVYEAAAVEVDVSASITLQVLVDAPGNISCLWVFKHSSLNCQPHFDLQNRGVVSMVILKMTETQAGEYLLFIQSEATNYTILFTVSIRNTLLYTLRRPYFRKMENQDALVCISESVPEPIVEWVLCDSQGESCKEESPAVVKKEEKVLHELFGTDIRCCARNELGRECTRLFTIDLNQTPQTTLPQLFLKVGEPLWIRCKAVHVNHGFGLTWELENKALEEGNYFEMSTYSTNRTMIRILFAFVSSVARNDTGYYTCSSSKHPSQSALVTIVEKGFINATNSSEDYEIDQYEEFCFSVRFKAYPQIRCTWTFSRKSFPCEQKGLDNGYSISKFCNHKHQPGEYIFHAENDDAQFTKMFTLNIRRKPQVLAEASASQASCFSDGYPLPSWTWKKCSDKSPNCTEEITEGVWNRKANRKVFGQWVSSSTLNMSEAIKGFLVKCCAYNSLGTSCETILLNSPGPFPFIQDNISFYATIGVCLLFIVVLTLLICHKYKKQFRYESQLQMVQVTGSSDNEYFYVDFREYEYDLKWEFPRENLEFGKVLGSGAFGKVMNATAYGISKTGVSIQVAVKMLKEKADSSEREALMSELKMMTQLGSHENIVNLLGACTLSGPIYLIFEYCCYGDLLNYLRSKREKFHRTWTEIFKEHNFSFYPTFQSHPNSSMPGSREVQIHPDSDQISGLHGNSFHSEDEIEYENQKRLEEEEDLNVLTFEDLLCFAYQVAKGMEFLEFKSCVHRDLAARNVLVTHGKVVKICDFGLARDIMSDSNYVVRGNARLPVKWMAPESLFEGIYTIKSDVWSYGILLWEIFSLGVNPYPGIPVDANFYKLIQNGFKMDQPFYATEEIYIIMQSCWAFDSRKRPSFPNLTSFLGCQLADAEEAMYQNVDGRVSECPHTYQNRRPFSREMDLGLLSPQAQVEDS
FLT3 WT, sequence (P36888 27-993): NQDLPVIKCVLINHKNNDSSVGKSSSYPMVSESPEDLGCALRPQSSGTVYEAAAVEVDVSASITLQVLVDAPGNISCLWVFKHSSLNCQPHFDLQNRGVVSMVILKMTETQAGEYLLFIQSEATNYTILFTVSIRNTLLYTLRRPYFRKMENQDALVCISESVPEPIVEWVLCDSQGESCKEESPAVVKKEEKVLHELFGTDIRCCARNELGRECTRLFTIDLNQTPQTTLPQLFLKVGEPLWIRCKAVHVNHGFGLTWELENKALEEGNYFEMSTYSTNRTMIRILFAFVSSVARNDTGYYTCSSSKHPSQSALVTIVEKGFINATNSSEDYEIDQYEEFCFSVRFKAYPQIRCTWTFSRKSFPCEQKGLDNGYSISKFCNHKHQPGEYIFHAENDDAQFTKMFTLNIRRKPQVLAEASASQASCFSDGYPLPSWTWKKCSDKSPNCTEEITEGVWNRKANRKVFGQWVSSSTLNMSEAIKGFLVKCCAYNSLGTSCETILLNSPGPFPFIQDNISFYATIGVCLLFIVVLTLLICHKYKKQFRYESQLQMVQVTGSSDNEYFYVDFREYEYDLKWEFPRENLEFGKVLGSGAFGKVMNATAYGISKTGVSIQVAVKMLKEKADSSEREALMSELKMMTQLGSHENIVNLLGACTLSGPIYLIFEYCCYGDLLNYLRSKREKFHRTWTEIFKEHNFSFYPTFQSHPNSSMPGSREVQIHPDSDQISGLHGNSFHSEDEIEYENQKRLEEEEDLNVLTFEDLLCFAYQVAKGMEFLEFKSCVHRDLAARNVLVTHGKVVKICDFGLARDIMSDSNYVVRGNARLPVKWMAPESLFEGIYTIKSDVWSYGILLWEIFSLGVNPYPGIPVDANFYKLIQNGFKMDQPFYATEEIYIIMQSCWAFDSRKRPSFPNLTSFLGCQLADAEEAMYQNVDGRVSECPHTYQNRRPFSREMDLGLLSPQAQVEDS

Broadly, the IC50 is the concentration at which inhibition is half-maximal. In the case of `Cc1ccc2c(c1)NC(=O)C2c1nc(Nc2cc(CN3C[C@@H](C)N[C@@H](C)C3)cc(C3CC3)c2)ncc1Cl` (stereo partly drawn) [Example 19, 3-(5-chloro-2-((3-cyclopropyl-5-(((3R,5S)-3,5-dimethylpiperazine-1-yl)methyl)phenyl)amino)pyrimidine-4-yl)-6-methylindoline-2-one], the IC50 in data set [1] is > 50 nM.

Regarding `Cc1ccc2c(-c3nc(Nc4cc(CN5C[C@@H](C)N[C@@H](C)C5)cc(C5CC5)c4)ncc3Cl)c[nH]c2c1O` [Example 22, 3-(5-chloro-2-((3-cyclopropyl-5-(((3R,5S)-3,5-dimethylpiperazine-1-yl)methyl)phenyl)amino)pyrimidine-4-yl)-6-methyl-1H-indole-7-ol], in data set [1], the IC50 stood at 2.4 nM.

By GI50 is commonly meant the concentration giving 50% growth inhibition. Take `Cc1ccc2c(-c3nc(Nc4cc(CN5CC(C)NC(C)C5)cc(C5CC5)c4)ncc3Cl)c[nH]c2c1` (stereo not shown) [Example 10, 5-chloro-N-(3-cyclopropyl-5-((3,5-dimethylpiperazine-1-yl)methyl)phenyl)-4-(6-methyl-1H-indole-3-yl)pyrimidine-2-amine]: the GI50 was found to be 5 nM in data set [2] and 2.8 nM in data set [3].

`Cc1ccc2c(-c3nc(Nc4cc(CN5C[C@@H](C)N(O)[C@@H](C)C5)cc(C5CC5)c4)ncc3Cl)c[nH]c2c1` [Example 31, (2R,6S)-4-(3-((5-chloro-4-(6-methyl-1H-indole-3-yl)pyrimidine-2-yl)amino)-5-cyclopropylbenzyl)-2,6-dimethylpiperazine-1-ol] had an IC50 in data set [1] of 6.9 nM.

Regarding `Cc1ccc2c(-c3nc(Nc4cc(CN5C[C@@H](C)N[C@@H](C)C5)cc(C5CC5)c4)ncc3F)c[nH]c2c1` [Example 12, N-(3-cyclopropyl-5-(((3R,5S)-3,5-dimethylpiperazine-1-yl)methyl)phenyl)-5-fluoro-4-(6-methyl-1H-indole-3-yl)pyrimidine-2-amine], the 50% growth inhibitory concentration (GI50) came to 21 nM in data set [2] and 11 nM in data set [3]. Moreover, the figures for the half-maximal inhibitory concentration (IC50) in data set [4] and in data set [1] were 1.2 nM and 2.5 nM, respectively.

As to `Cc1cnc(Nc2cc(CN3C[C@@H](C)N[C@@H](C)C3)cc(C3CC3)c2)nc1-c1c[nH]c2ccccc12` [Example 13, N-(3-cyclopropyl-5-(((3R,5S)-3,5-dimethylpiperazine-1-yl)methyl)phenyl)-4-(1H-indole-3-yl)-5-methylpyrimidine-2-amine], the concentration for 50% growth inhibition (GI50) is 2.6 nM in data set [2] and 2.1 nM in data set [3]. The compound also gave a 50% inhibitory concentration (IC50) in data set [1] of 8.7 nM.

With `C[C@@H]1CN(Cc2cc(Nc3ncc(Cl)c(-c4c[nH]c5cc(F)ccc45)n3)cc(C3CC3)c2)C[C@H](C)N1CCO` [Example 3, 2-((2R,6S)-4-(3-((5-chloro-4-(6-fluoro-1H-indole-3-yl)pyrimidine-2-yl)amino)-5-cyclopropylbenzyl)-2,6-dimethylpiperazine-1-yl)ethane-1-ol], the values for the concentration for 50% growth inhibition (GI50) in data set [2] and in data set [3] were 0.4 nM and 0.3 nM, respectively. For the same compound, the 50% inhibitory concentration (IC50) in data set [1] was found to be 8.1 nM.

As a reminder, the AUC is concentration integrated over time. What is called bioavailability is the share of a dose that reaches the circulation, judged against a reference dose that is usually intravenous. Take `Cc1ccc2c(-c3nc(Nc4cc(C5CC5)cc(N5CCC(N(C)C)CC5)c4)ncc3Cl)c[nH]c2c1` [Control Compound 3]: in data set [5], the AUC is 2270 ng·h/mL and the bioavailability turned out to be 27.3%.

As to `COc1cc2c(-c3nc(Nc4cc(CN5C[C@@H](C)N[C@@H](C)C5)cc(C5CC5)c4)ncc3Cl)c[nH]c2cc1C` [Example 17, 5-chloro-N-(3-cyclopropyl-5-(((3R,5S)-3,5-dimethylpiperazine-1-yl)methyl)phenyl)-4-(5-methoxy-6-methyl-1H-indole-3-yl)pyrimidine-2-amine], the IC50 in data set [4] was 9.5 nM; in data set [1], > 50 nM.

For the compound `OCCN1CCN(Cc2cccc(Nc3ncc(Cl)c(-c4c[nH]c5ccccc45)n3)c2)CC1` [Control Compound 2], in data set [5], the area under the curve (AUC) amounted to 110 ng·h/mL and the bioavailability was determined as 6.7%.

For the compound `Cc1ccc2c(-c3nc(Nc4cc(CN5C[C@@H](C)NC(C)(C)C5)cc(C5CC5)c4)ncc3Cl)c[nH]c2c1` [Example 25, (R)-5-chloro-N-(3-cyclopropyl-5-((3,3,5-trimethylpiperazine-1-yl)methyl)phenyl)-4-(6-methyl-1H-indole-3-yl)pyrimidine-2-amine], the 50% growth inhibitory concentration (GI50) came out at 8.5 nM in data set [2] and 9.3 nM in data set [3]. The area under the curve (AUC) in data set [5] is 21800 ng·h/mL. Also, in data set [5], the bioavailability was 21.2%. The IC50 was 2.3 nM in data set [4] and 20 nM in data set [1].

As to `Cc1cc2[nH]cc(-c3nc(Nc4cc(CN5C[C@@H](C)N[C@@H](C)C5)cc(C5CC5)c4)ncc3Cl)c2cc1O` [Example 18, 3-(5-chloro-2-((3-cyclopropyl-5-(((3R,5S)-3,5-dimethylpiperazine-1-yl)methyl)phenyl)amino)pyrimidine-4-yl)-6-methyl-1H-indole-5-ol], the IC50 is 3.7 nM in data set [4] and 13 nM in data set [1].

`Cc1ccc2c(-c3nc(Nc4cc(CN5C[C@@H](C)N[C@H](C)C5)cc(C5CC5)c4)ncc3Cl)c[nH]c2c1` [Example 28, 5-chloro-N-(3-cyclopropyl-5-(((3R,5R)-3,5-dimethylpiperazine-1-yl)methyl)phenyl)-4-(6-methyl-1H-indole-3-yl)pyrimidine-2-amine]: the concentration for 50% growth inhibition (GI50) in data set [2] is 0.8 nM; in data set [3], < 0.01 nM.

Regarding `Cc1ccc2c(-c3nc(Nc4cc(CN5C[C@H](CO)N[C@H](C)C5)cc(C5CC5)c4)ncc3Cl)c[nH]c2c1` [Example 26, ((2R,6R)-4-(3-((5-chloro-4-(6-methyl-1H-indole-3-yl)pyrimidine-2-yl)amino)-5-cyclopropylbenzyl)-6-methylpiperazine-2-yl)methanol], the GI50 in data set [2] stood at 6.1 nM; in data set [3], 22 nM. The half-inhibitory concentration (IC50) in data set [4] was determined as 1.5 nM; in data set [1], 2.3 nM.

Consider `Cc1ccc2c(-c3nc(Nc4cc(C5CC5)cc(CN5C[C@@H](C)N[C@@H](C)C5)c4O)ncc3Cl)c[nH]c2c1` [Example 23, 2-((5-chloro-4-(6-methyl-1H-indole-3-yl)pyrimidine-2-yl)amino)-4-cyclopropyl-6-(((3R,5S)-3,5-dimethylpiperazine-1-yl)methyl)phenol], for which the IC50 is 0.4 nM in data set [4] and > 50 nM in data set [1].

Regarding `C[C@@H]1CN(Cc2cc(Nc3ncc(Cl)c(-c4c[nH]c5ccccc45)n3)cc(C3CC3)c2)CCN1` [Example 6, (R)-5-chloro-N-(3-cyclopropyl-5-((3-methylpiperazine-1-yl)methyl)phenyl)-4-(1H-indole-3-yl)pyrimidine-2-amine], in data set [1], the concentration for half-maximal inhibition (IC50) is 1.8 nM.

Take `C[C@@H]1CN(Cc2cc(Nc3ncc(Cl)c(-c4c[nH]c5cc(Cl)ccc45)n3)cc(C3CC3)c2)C[C@H](C)N1` [Example 2, 5-chloro-4-(6-chloro-1H-indole-3-yl)-N-(3-cyclopropyl-5-(((3R,5S)-3,5-dimethylpiperazine-1-yl)methyl)phenyl)pyrimidine-2-amine]: the 50% growth inhibitory concentration (GI50) in data set [2] worked out at 6.2 nM; in data set [3], 3.5 nM. The results for the IC50 in data set [4] and in data set [1] were 1.9 nM and 1.5 nM, respectively.

Turning to `Cc1ccc2c(-c3nc(Nc4cc(CN5CCN(C(C)(C)CO)CC5)cc(C5CC5)c4)ncc3Cl)c[nH]c2c1` [Control Compound 5], in data set [5], the AUC was determined as 1220 ng·h/mL and the bioavailability was 25.6%.

Turning to `COc1cc(CN2CCN(CCO)CC2)cc(Nc2ncc(Cl)c(-c3c[nH]c4ccccc34)n2)c1` [Control Compound 1], in data set [5], the area under the curve (AUC) amounted to 95.5 ng·h/mL and the bioavailability was 6.6%.

In data set [2], `C[C@@H]1CN(Cc2cc(Nc3ncc(Cl)c(-c4c[nH]c5ccccc45)n3)cc(C3CC3)c2)C[C@H](C)N1CCO` [Example 4, 2-((2R,6S)-4-(3-((5-chloro-4-(1H-indole-3-yl)pyrimidine-2-yl)amino)-5-cyclopropylbenzyl)-2,6-dimethylpiperazine-1-yl)ethane-1-ol] yielded a 50% growth inhibitory concentration (GI50) of 0.7 nM. For the same compound, in data set [5], the exposure (AUC) turned out to be 184 ng·h/mL and the bioavailability is 7.4%. In data set [3], this compound returned a GI50 of 1.7 nM. The same compound showed an IC50 in data set [1] of 3.6 nM.

Regarding `CN(C)C1CCN(c2cc(Nc3ncc(Cl)c(-c4c[nH]c5ccccc45)n3)cc(C3CC3)c2)CC1` [Control Compound 4], in data set [5], the AUC stood at 518 ng·h/mL and the bioavailability came out at 27%.

As for `C[C@@H]1CN(Cc2cc(Nc3ncc(Cl)c(-c4c[nH]c5cc(CO)ccc45)n3)cc(C3CC3)c2)C[C@H](C)N1` [Example 16, (3-(5-chloro-2-((3-cyclopropyl-5-(((3R,5S)-3,5-dimethylpiperazine-1-yl)methyl)phenyl)amino)pyrimidine-4-yl)-1H-indole-6-yl)methanol], the half-inhibitory concentration (IC50) in data set [4] was found to be 0.4 nM; in data set [1] it was 0.5 nM.
